Data published in patent US11964978B2, “Modulators of STING (stimulator of interferon genes)” (PFIZER INC., priority 2021, dated 2024).

Columns and labels:
[1] = tested on: phosphorylation of IRF3 in THP-1 cells (STING activation); experiment: Phosphorylation of IRF3: THP-1 cell ELISA; format: cell-based; conditions: Homo sapiens, 3 hours incubation, read-out: THP-1 CELL P-IRF3 EC50
Experimental: Phosphorylation of IRF3: THP-1 cell ELISA
STING activation results in recruitment of TBK1 and phosphorylation of IRF3 transcription factor before induction of type I interferons. THP-1 cells (InvivoGen) were grown in RPMI media plus 2 mM L-glutamine, 10% fetal bovine serum, and 0.5% Pen-Strep. 10^4 cells were seeded in 96-well plates and incubated overnight […]. Compounds serial diluted compounds in media (final 0.5% DMSO) were added to the cells and incubated for an additional 3 hours. After incubation, the plates were centrifuged at 2000 rpm for 5 min. The cells were then lysed in 100 μl RIPA buffer and vortexed for 30 minutes at room temperature. 25 μl of lysate was then transferred to clear polystyrene High Bind plates that had been previously coated with mouse anti-human IRF-3 capture antibody (BD Pharmigen), and allowed to incubate at 4° C. for 16 hours. The plates were then washed and incubated with rabbit anti-phospho-IRF3 detection antibody (Cell Signaling Technologies) for 1.5 hours at room temperature. Finally, an HRP-linked secondary antibody (Cell Signaling Technologies) was added for 30 min before the Glo Substrate Reagent (R&D Systems) was used generate the luminescent signal. The signal was measured using a Perkin-Elmer Envision microplate reader. Data were normalized to “% effect” with a positive control STING agonist that was known to maximize the phosphorylated IRF3 signal and the negative control was DMSO.

[2] = tested on: THP-1 Lucia ISG cells (IRF-inducible Lucia luciferase reporter); experiment: Interferon-β induction: THP-1 ISG reporter cell line; format: cell-based; conditions: THP1-Lucia ISG, 24 hours incubation, read-out: THP-1 Lucia ISG Cells IFN-β EC50
Experimental: Interferon-β Induction: THP-1 ISG Reporter Cell Line
THP-1 Lucia™ ISG cells (InvivoGen) express the secreted luciferase “Lucia” reporter gene under the control of an IRF-inducible composite promotor comprised of five interferon response elements. THP-1 Lucia™ ISG cells were grown in RPMI media plus 2 mM L-glutamine, 10% fetal bovine serum, and 0.5% Pen-Strep. Hygromycin B and Zeocin were present to maintain stable transfection. 10^4 cells were seeded in 96-well plates and incubated overnight 37° C., 5% CO2. 50 μL of serial diluted compounds in media (final 0.5% DMSO) was and incubated for an additional 24 hours. After incubation, the plates were centrifuged at 2000 rpm for 10 min. 50 μl of cell culture supernatant of each well was transferred to a white, opaque 96-well plate. One pouch of QUANTI-Luc™ (InvivoGen) powder was prepared in 25 mL of endotoxin-free water and 100 μL of prepared warm QUANTI-Luc solution were added to each well containing the supernatant. The luminescence signal was measured using a Perkin-Elmer Envision microplate reader. Data were normalized to “% effect” with a positive control STING agonist that was known to maximize the luciferase signal and the negative control DMSO.

R232-STING = R232-STING (Homo sapiens (Human), UniProt Q86WV6, H232R); conditions: read-out: R232-STING SPA-IC50 Ki; STING residues 155-341, 100 nM 3H-cGAMP; KI from IC50 with Cheng-Prusoff equation
Chain of R232-STING (Q86WV6 155-341 H232R): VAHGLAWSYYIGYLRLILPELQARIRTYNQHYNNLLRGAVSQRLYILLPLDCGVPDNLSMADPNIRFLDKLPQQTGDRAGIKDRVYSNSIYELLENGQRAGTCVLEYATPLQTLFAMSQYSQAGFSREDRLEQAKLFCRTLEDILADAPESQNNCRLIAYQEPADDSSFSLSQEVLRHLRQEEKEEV

SMILES | EC50 [1] [µM] | EC50 [2] [µM] | Ki (R232-STING) [µM]
Cc1cc(-c2cn(C)c(-c3nc(C(N)=O)cc4c3cnn4C)n2)n(C[C@@H]2CCO2)n1 (single isomer, unassigned) [AIM02] | > 10 | 8.96 | 0.135
Cc1cc(-c2cn(C)c(-c3nc(C(N)=O)cc4c3cnn4C)n2)n(C[C@H]2CCO2)n1 (single isomer, unassigned) [Example AIM01] | > 10 | > 10 | 0.175
CCn1cc(-c2cc(C)nn2CC)nc1-c1nc(C(N)=O)cc2c1cnn2C [AIA02, 4-[1-ethyl-4-(1-ethyl-3-methyl-1H-pyrazol-5-yl)-1H-imidazol-2-yl]-1-methyl-1H-pyrazolo[4,3-c]pyridine-6-carboxamide] | 0.8 | 0.77 | 0.018
CCn1nc(C)cc1-c1cn(C(C)C)c(-c2nc(C(N)=O)cc3c2cnn3C)n1 [AIA03, 4-[4-(1-ethyl-3-methyl-1H-pyrazol-5-yl)-1-(propan-2-yl)-1H-imidazol-2-yl]-1-methyl-1H-pyrazolo[4,3-c]pyridine-6-carboxamide] | 4.89 | 4.53 | 0.0714
CCn1nc(C)cc1-c1cn(CC(F)F)c(-c2nc(C(N)=O)cc3c2cnn3C)n1 [AIA04, 4-[1-(2,2-difluoroethyl)-4-(1-ethyl-3-methyl-1H-pyrazol-5-yl)-1H-imidazol-2-yl]-1-methyl-1H-pyrazolo[4,3-c]pyridine-6-carboxamide] | 1.26 | 1.31 | 0.0338
CCn1nc(C)cc1-c1cn(C)c(-c2nc(C(N)=O)cc3c2ccn3C)n1 [AIC02, 4-[4-(1-ethyl-3-methyl-1H-pyrazol-5-yl)-1-methyl-1H-imidazol-2-yl]-1-methyl-1H-pyrrolo[3,2-c]pyridine-6-carboxamide] | > 10 | > 10 | 0.113
CCn1ncc2c(-c3nc(-c4cc(C)nn4CCCOC)cn3C)nc(C(N)=O)cc21 [AIC03, 1-ethyl-4-{4-[1-(3-methoxypropyl)-3-methyl-1H-pyrazol-5-yl]-1-methyl-1H-imidazol-2-yl}-1H-pyrazolo[4,3-c]pyridine-6-carboxamide] | 0.65 | 0.7 | 0.0078
CCn1cc(-c2cc(C)nn2CCCO)nc1-c1nc(C(N)=O)cc2c1cnn2C [AIE02, 4-{1-ethyl-4-[1-(3-hydroxypropyl)-3-methyl-1H-pyrazol-5-yl]-1H-imidazol-2-yl}-1-methyl-1H-pyrazolo[4,3-c]pyridine-6-carboxamide] | 0.2 | 0.27 | 0.0127
Cc1cc(-c2cn(C)c(-c3nc(C(N)=O)cc4c3cnn4C)n2)n(CCCCCO)n1 [AIE03, 4-{4-[1-(5-hydroxypentyl)-3-methyl-1H-pyrazol-5-yl]-1-methyl-1H-imidazol-2-yl}-1-methyl-1H-pyrazolo[4,3-c]pyridine-6-carboxamide] | 0.31 | 0.31 | 0.0107
Cc1cc(-c2cn(C)c(-c3nc(C(N)=O)cc4c3cnn4C)n2)n(CCCCO)n1 [AIE04, 4-{4-[1-(4-hydroxybutyl)-3-methyl-1H-pyrazol-5-yl]-1-methyl-1H-imidazol-2-yl}-1-methyl-1H-pyrazolo[4,3-c]pyridine-6-carboxamide] | 0.69 | 0.74 | 0.0137
COCCn1nc(C)cc1-c1cn(C)c(-c2nc(C(N)=O)cc3c2cnn3C)n1 [AIF02, 4-{4-[1-(2-methoxyethyl)-3-methyl-1H-pyrazol-5-yl]-1-methyl-1H-imidazol-2-yl}-1-methyl-1H-pyrazolo[4,3-c]pyridine-6-carboxamide] | 2.09 | 2.16 | 0.0546
COCCCn1nc(C)cc1-c1cn(C)c(-c2nc(C(N)=O)cc3c2cnn3C)n1 [AIF03, 4-{4-[1-(3-methoxypropyl)-3-methyl-1H-pyrazol-5-yl]-1-methyl-1H-imidazol-2-yl}-1-methyl-1H-pyrazolo[4,3-c]pyridine-6-carboxamide] | 0.14 | 0.16 | 0.0057
Cc1cc(-c2cn(C)c(-c3nc(C(N)=O)cc4c3cnn4C)n2)n(CC2CC2)n1 [AIF04, 4-{4-[1-(cyclopropylmethyl)-3-methyl-1H-pyrazol-5-yl]-1-methyl-1H-imidazol-2-yl}-1-methyl-1H-pyrazolo[4,3-c]pyridine-6-carboxamide] | 2.12 | 2.38 | 0.0236
Cc1cc(-c2cn(C)c(-c3nc(C(N)=O)cc4c3cnn4C)n2)n(CCC(F)(F)F)n1 [AIF05, 1-methyl-4-{1-methyl-4-[3-methyl-1-(3,3,3-trifluoropropyl)-1H-pyrazol-5-yl]-1H-imidazol-2-yl}-1H-pyrazolo[4,3-c]pyridine-6-carboxamide] | – | – | > 0.99
Cc1cc(-c2cn(C)c(-c3nc(C(N)=O)cc4c3cnn4C)n2)n(CC(F)(F)F)n1 [AIF06, 1-methyl-4-{1-methyl-4-[3-methyl-1-(2,2,2-trifluoroethyl)-1H-pyrazol-5-yl]-1H-imidazol-2-yl}-1H-pyrazolo[4,3-c]pyridine-6-carboxamide] | 2.61 | 2.57 | 0.0182
CCn1nc(C)c(O)c1-c1cn(C)c(-c2nc(C(N)=O)cc3c2cnn3C)n1 [AIF07, 4-[4-(1-ethyl-4-hydroxy-3-methyl-1H-pyrazol-5-yl)-1-methyl-1H-imidazol-2-yl]-1-methyl-1H-pyrazolo[4,3-c]pyridine-6-carboxamide] | 0.31 | 0.2 | 0.002
CCn1nc(C)c(Cl)c1-c1cn(C)c(-c2nc(C(N)=O)cc3c2cnn3C)n1 [AIF08, 4-[4-(4-chloro-1-ethyl-3-methyl-1H-pyrazol-5-yl)-1-methyl-1H-imidazol-2-yl]-1-methyl-1H-pyrazolo[4,3-c]pyridine-6-carboxamide] | – | – | > 0.99
CCn1nc(C(F)(F)F)cc1-c1cn(C)c(-c2nc(C(N)=O)cc3c2cnn3C)n1 [AIF09, 4-{4-[1-ethyl-3-(trifluoromethyl)-1H-pyrazol-5-yl]-1-methyl-1H-imidazol-2-yl}-1-methyl-1H-pyrazolo[4,3-c]pyridine-6-carboxamide] | – | – | > 0.99
COCCCn1nc(C)c(O)c1-c1cn(C)c(-c2nc(C(N)=O)cc3c2cnn3C)n1 [AIF10, 4-{4-[4-hydroxy-1-(3-methoxypropyl)-3-methyl-1H-pyrazol-5-yl]-1-methyl-1H-imidazol-2-yl}-1-methyl-1H-pyrazolo[4,3-c]pyridine-6-carboxamide] | 0.07 | 0.03 | 0.0013
CCCn1nc(C)c(O)c1-c1cn(C)c(-c2nc(C(N)=O)cc3c2cnn3C)n1 [AIF11, 4-[4-(4-hydroxy-3-methyl-1-propyl-1H-pyrazol-5-yl)-1-methyl-1H-imidazol-2-yl]-1-methyl-1H-pyrazolo[4,3-c]pyridine-6-carboxamide] | 0.01 | < 0.01 | 0.0003
CCn1nc(C)c(F)c1-c1cn(C)c(-c2nc(C(N)=O)cc3c2cnn3C)n1 [AIF12, 4-[4-(1-ethyl-4-fluoro-3-methyl-1H-pyrazol-5-yl)-1-methyl-1H-imidazol-2-yl]-1-methyl-1H-pyrazolo[4,3-c]pyridine-6-carboxamide] | 0.31 | 0.37 | 0.0024
CCc1nn(C)cc1-c1cn(C)c(-c2nc(C(N)=O)cc3c2cnn3C)n1 [AIH01, 4-[4-(3-ethyl-1-methyl-1H-pyrazol-4-yl)-1-methyl-1H-imidazol-2-yl]-1-methyl-1H-pyrazolo[4,3-c]pyridine-6-carboxamide] | – | – | 0.352
CCn1nc(C)cc1-c1cn(Cc2ccccc2)c(-c2nc(C(N)=O)cc3c2cnn3C)n1 [AIP03] | – | – | > 0.99
CCn1nc(C)cc1-c1cn(C2CC2)c(-c2nc(C(N)=O)cc3c2cnn3C)n1 [Example AIB01, 4-[1-cyclopropyl-4-(1-ethyl-3-methyl-1H-pyrazol-5-yl)-1H-imidazol-2-yl]-1-methyl-1H-pyrazolo[4,3-c]pyridine-6-carboxamide] | – | – | 0.257
